In brackets after ≈: the same amount, converted by molar mass. Where two headings read alike, the source gives them in different places.
What was measured:
[1] = test system: Saccharomyces cerevisiae (Sc); test: Minimum inhibitory concentration, malt yeast agar, Saccharomyces cerevisiae; format: cell-based, Saccharomyces cerevisiae ATCC 4105; conditions: read-out: Minimum Inhibitory Concentration, Sc
Protocol: (§1) Malt yeast agar is prepared by adding 3 g yeast extract and 45 g malt agar per liter of deionized water. The specific agar is dispensed in 30 mL aliquots into 25×200 mm test tubes, capped and autoclaved for 15 minutes at 115° C.
(§2) The inoculation with the yeast and fungi is accomplished as follows. Cultures of yeast and fungi are incubated for seven days on malt yeast agar at 30° C. These cultures are used to prepare suspensions by the following procedure. A suspension of each organism is prepared by adding 10 mL of sterile saline and 10 microliters of octylphenoxy polyethoxy ethanol to the agar slant of yeast or fungi. The sterile saline/octylphenoxy polyethoxy ethanol solution is then agitated with a sterile swab to suspend the microorganism grown on the slant. Each resulting suspension is diluted into sterile saline (1 part suspension to 9 parts sterile saline). Aliquots of these dilutions are placed in individual wells of Steer's Replicator and petri plates inoculated as previously described. The petri plates are incubated at 30° C. and read after 48 hours for yeast and 72 hours for fungi.

[2] = test system: Pseudomonas aeruginosa (PRD-10); test: Minimum inhibitory concentration, nutrient agar, Pseudomonas aeruginosa PRD-10; conditions: 48 h
[3] = test system: Aureobasidium pullulan (Ap); test: Minimum inhibitory concentration, malt yeast agar, Aureobasidium pullulan; format: cell-based, Aureobasidium pullulan ATCC 16622; conditions: 30° C, 48 hours for yeast and 72 hours for fungi
Protocol: as §1, §2

Bacillus subtilis (Bs) = test: Minimum inhibitory concentration, nutrient agar, Bacillus subtilis; conditions: 48 h
[4] = test system: Enterobacter aerogenes (Ea); test: Minimum inhibitory concentration, nutrient agar, Enterobacter aerogenes; conditions: Klebsiella aerogenes, 48 h
Proteus vulgaris (Pv) = test: Minimum inhibitory concentration, nutrient agar, Proteus vulgaris; conditions: 48 h
[5] = test system: Staphylococcus aureus (Sa); test: Minimum inhibitory concentration, nutrient agar, Staphylococcus aureus; conditions: 48 h
[6] = test system: Salmonella choleraesuis (Sc); test: Minimum inhibitory concentration, nutrient agar, Salmonella choleraesuis; format: cell-based, Salmonella choleraesuis ATCC 10708; conditions: Salmonella enterica, 30° C, 48 hours
[7] = test system: Penicillium chrysogenum (PC); test: Minimum inhibitory concentration, malt yeast agar, Penicillium chrysogenum; format: cell-based, Penicillium chrysogenum ATCC 9480; conditions: read-out: Minimum Inhibitory Concentration, Pc
Protocol: as §1, §2

Escherichia coli (Ec) = test: Minimum inhibitory concentration, nutrient agar, Escherichia coli; conditions: 48 h
[8] = test system: Klebsiella pneumoniae (Kp); test: Minimum inhibitory concentration, nutrient agar, Klebsiella pneumoniae; conditions: 48 h
Candida albicans (Ca) = test: Minimum inhibitory concentration, malt yeast agar, Candida albicans; format: cell-based, Candida albicans ATCC 10231; conditions: read-out: Minimum Inhibitory Concentration, Ca
Protocol: as §1, §2

Fusarium oxysporum (Of) = test: Minimum inhibitory concentration, malt yeast agar, Fusarium oxysporum; format: cell-based, Fusarium oxysporum ATCC 48112; conditions: 30° C, 72 hours (fungi), read-out: Minimum Inhibitory Concentration, Fo
Protocol: as §1, §2

[9] = test system: Pseudomonas aeruginosa (Pa); test: Minimum inhibitory concentration, nutrient agar, Pseudomonas aeruginosa; format: cell-based, Pseudomonas aeruginosa ATCC 10145; conditions: 30° C, 48 hours
Trichoderma viride (Tv) = test: Minimum inhibitory concentration, malt yeast agar, Trichoderma viride; format: cell-based, Trichoderma viride ATCC 8678; conditions: read-out: Minimum Inhibitory Concentration, Tv
Protocol: as §1, §2

Aspergillus niger (An) = test: Minimum inhibitory concentration, malt yeast agar, Aspergillus niger; format: cell-based, Aspergillus niger ATCC 16404; conditions: 30° C, 72 hours (fungi)
Protocol: as §1, §2

[10] = malt yeast agar, 30° C, 48 hours (yeast)
[11] = pH 6.8, read-out: Minimum inhibitory Concentration, PRD
[12] = pH 8.2, read-out: Minimum inhibitory Concentration, PRD
[13] = pH 6.8, read-out: Minimum inhibitory Concentration, Bs
[14] = pH 8.2, read-out: Minimum inhibitory Concentration, Bs
[15] = pH 6.8, read-out: Minimum inhibitory Concentration, Ea
[16] = pH 8.2, read-out: Minimum inhibitory Concentration, Ea
[17] = pH 6.8, read-out: Minimum inhibitory Concentration, Pv
[18] = pH 8.2, read-out: Minimum inhibitory Concentration, Pv
[19] = pH 6.8, read-out: Minimum inhibitory Concentration, Sa
[20] = pH 8.2, read-out: Minimum inhibitory Concentration, Sa
[21] = malt yeast agar, 30° C, 72 hours (fungi)
[22] = pH 6.8, read-out: Minimum inhibitory Concentration, Ec
[23] = pH 8.2, read-out: Minimum inhibitory Concentration, Ec
[24] = pH 6.8, read-out: Minimum inhibitory Concentration, Kp
[25] = pH 8.2, read-out: Minimum inhibitory Concentration, Kp

Compound | MIC [1, 10] | MIC [2, 11] | MIC [2, 12] | MIC [3] | MIC (Bacillus subtilis (Bs); [13]) | MIC (Bacillus subtilis (Bs); [14]) | MIC [4, 15] | MIC [4, 16] | MIC (Proteus vulgaris (Pv); [17]) | MIC (Proteus vulgaris (Pv); [18]) | MIC [5, 19] | MIC [5, 20] | MIC ([6]; pH 6.8, nutrient agar) | MIC ([6]; pH 8.2, nutrient agar) | MIC (Escherichia coli (Ec); [22]) | MIC (Escherichia coli (Ec); [23]) | MIC [8, 24] | MIC [8, 25] | MIC ([9]; pH 6.8, nutrient agar) | MIC ([9]; pH 8.2, nutrient agar) | further results
CCn1c(=O)c2sc3nsnc3sc=2c1=O [III, 6-Ethyl-5H-Pyrrolo(3',4':5,6)(1,4)dithiino-(2,3-C)(1,2,5)thiadiazole-5,7(6H) -dione] | < 10 mg/L | > 500 mg/L | > 500 mg/L | < 10 mg/L | 25 mg/L (≈ 92.1 µM) | 100 mg/L (≈ 369 µM) | > 500 mg/L | > 500 mg/L | 50 mg/L (≈ 184 µM) | > 500 mg/L | 50 mg/L (≈ 184 µM) | 250 mg/L (≈ 921 µM) | 250 mg/L (≈ 921 µM) | > 500 mg/L | 50 mg/L (≈ 184 µM) | > 500 mg/L | 500 mg/L (≈ 1840 µM) | > 500 mg/L | > 500 mg/L | > 500 mg/L | MIC [7, 21]: 25 mg/L (≈ 92.1 µM); MIC (Candida albicans (Ca); [10]): < 10 mg/L; MIC (Fusarium oxysporum (Of)): 250 mg/L (≈ 921 µM); MIC (Trichoderma viride (Tv); [21]): 500 mg/L (≈ 1840 µM)
Cn1c(=O)c2sc3nsnc3sc=2c1=O [II, 6-Methyl-5H-Pyrrolo (3',4':5,6)(1,4)dithiino-(2,3-C)(1,2,5)thiadiazole-5,7(6H) -dione] | < 1 mg/L | > 500 mg/L | > 500 mg/L | < 1 mg/L | < 10 mg/L | 250 mg/L (≈ 972 µM) | > 500 mg/L | > 500 mg/L | 25 mg/L (≈ 97.2 µM) | > 500 mg/L | 50 mg/L (≈ 194 µM) | 250 mg/L (≈ 972 µM) | 100 mg/L (≈ 389 µM) | > 500 mg/L | 50 mg/L (≈ 194 µM) | > 500 mg/L | 250 mg/L (≈ 972 µM) | > 500 mg/L | > 500 mg/L | > 500 mg/L | MIC (Aspergillus niger (An)): < 1 mg/L; MIC [7, 21]: < 1 mg/L; MIC (Candida albicans (Ca); [10]): < 1 mg/L; MIC (Fusarium oxysporum (Of)): < 1 mg/L; MIC (Trichoderma viride (Tv); [21]): < 1 mg/L
O=c1c2sc3nsnc3sc=2c(=O)n1-c1ccccc1 [VI, 6-Phenyl-5H-Pyrrolo(3',4':5,6)(1,4)dithiino-(2,3-C)(1,2,5)thiadiazole-5,7 (6H) -dione] | 100 mg/L (≈ 313 µM) | > 500 mg/L | > 500 mg/L | < 10 mg/L | < 10 mg/L | 100 mg/L (≈ 313 µM) | > 500 mg/L | > 500 mg/L | > 500 mg/L | > 500 mg/L | 25 mg/L (≈ 78.3 µM) | 50 mg/L (≈ 157 µM) | > 500 mg/L | > 500 mg/L | > 500 mg/L | > 500 mg/L | > 500 mg/L | > 500 mg/L | > 500 mg/L | > 500 mg/L | MIC (Aspergillus niger (An)): < 10 mg/L; MIC ([7]; 72 h): < 10 mg/L; MIC (Candida albicans (Ca); [10]): 250 mg/L (≈ 783 µM); MIC (Fusarium oxysporum (Of)): 250 mg/L (≈ 783 µM); MIC (Trichoderma viride (Tv); [21]): 500 mg/L (≈ 1570 µM)
CCCCCCn1c(=O)c2sc3nsnc3sc=2c1=O [V, 6-n-Hexyl-5H-Pyrrolo (3',4':5,6)(1,4)dithiino-(2,3-C)(1,2,5)thiadiazole-5,7(6H) -dione] | – | > 500 mg/L | > 500 mg/L | 25 mg/L (≈ 76.3 µM) | < 10 mg/L | 25 mg/L (≈ 76.3 µM) | > 500 mg/L | > 500 mg/L | > 500 mg/L | > 500 mg/L | < 10 mg/L | < 10 mg/L | > 500 mg/L | > 500 mg/L | > 500 mg/L | > 500 mg/L | > 500 mg/L | > 500 mg/L | > 500 mg/L | > 500 mg/L | MIC ([1]; 48 h): 25 mg/L (≈ 76.3 µM); MIC [7, 21]: 25 mg/L (≈ 76.3 µM); MIC (Candida albicans (Ca); 48 h): 25 mg/L (≈ 76.3 µM); MIC (Trichoderma viride (Tv); 72 h): 50 mg/L (≈ 153 µM)
O=c1c2sc3nsnc3sc=2c(=O)n1CCc1ccccc1 [VII, 6-(2-Phenethyl)-5H-Pyrrolo(3',4':5,6)(1,4)dithiino-(2,3-C)(1,2,5)thiadiazole-5,7(6H)-dione] | 250 mg/L (≈ 720 µM) | > 500 mg/L | > 500 mg/L | 100 mg/L (≈ 288 µM) | > 500 mg/L | > 500 mg/L | > 500 mg/L | > 500 mg/L | > 500 mg/L | > 500 mg/L | > 500 mg/L | > 500 mg/L | > 500 mg/L | > 500 mg/L | > 500 mg/L | > 500 mg/L | > 500 mg/L | > 500 mg/L | > 500 mg/L | > 500 mg/L | MIC (Aspergillus niger (An)): 100 mg/L (≈ 288 µM); MIC [7, 21]: > 500 mg/L; MIC (Candida albicans (Ca); [10]): > 500 mg/L; MIC (Fusarium oxysporum (Of)): > 500 mg/L; MIC (Trichoderma viride (Tv); [21]): > 500 mg/L

Source: patent US5633219A, “5H-pyrrolo(3',4':5,6)(1,4)dithiin o(2,3-C)(1,2,5)thiadiazole-5,7(6H)-dione, compositions containing them and their use as antimicrobial and marine antifouling agents” (The Dow Chemical Company, priority 1996, dated 1997)
